Active and inactive are the calls of the source. The rule behind the calls is not given here. Bridge positions count the residues as written; N and C are the ends. Square brackets hold non-standard residues; d marks the D form. Peptide text beside a SMILES is read from it. NMeF = CN[C@@H](Cc1ccccc1)C(=O)O; dOrn = NCCC[C@@H](N)C(=O)O; dDab = NCC[C@@H](N)C(=O)O
Assays:
[1] = target: Kappa-type opioid receptor (Homo sapiens, UniProt P41145); format: functional, cell-based, HEK293-A
Mus musculus [2] = assay: Antinociceptive activity in Kunming mouse assessed as analgesic tolerance administered subcutaneously once daily for 8 days by tail flick test; format: functional, organism-based; conditions: time 8.0 day
[3] = target: T1, Neuropeptide FF receptor 1 (Homo sapiens, UniProt Q9GZQ6); assay: Agonist activity at NPFF1R (unknown origin) expressed in HEK293-A cells assessed as inhibition of forskolin-induced cAMP accumulation preincubated for 30 mins in presence of 3-isobutyl-1-methylxanthine followed by forskolin and compound addition by competitive PKA binding assay; format: functional, cell-based
T1 sequence (Q9GZQ6 whole entry): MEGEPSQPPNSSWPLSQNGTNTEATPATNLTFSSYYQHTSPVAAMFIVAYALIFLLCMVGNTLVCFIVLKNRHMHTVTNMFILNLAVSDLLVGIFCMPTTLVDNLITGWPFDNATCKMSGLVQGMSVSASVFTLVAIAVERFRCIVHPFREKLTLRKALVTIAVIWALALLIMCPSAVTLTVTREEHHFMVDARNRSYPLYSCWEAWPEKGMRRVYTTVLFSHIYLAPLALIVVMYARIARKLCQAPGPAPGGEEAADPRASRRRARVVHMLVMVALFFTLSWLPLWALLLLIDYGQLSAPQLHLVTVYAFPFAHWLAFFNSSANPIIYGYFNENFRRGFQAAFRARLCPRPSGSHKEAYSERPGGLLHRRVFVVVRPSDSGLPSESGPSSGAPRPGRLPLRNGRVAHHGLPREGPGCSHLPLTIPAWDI

Mus musculus [4] = assay: Antinociceptive activity against Kunming mouse model of thermal-induced nociception assessed as maximum possible effect at 8681 nmol/kg, po measured after 20 min by tail flick test relative to control; format: functional
[5] = target: T2, Delta-type opioid receptor (Homo sapiens, UniProt P41143); assay: (§1) Agonist activity at DOR (unknown origin) expressed in HEK293-A cells assessed as inhibition of forskolin-induced cAMP accumulation preincubated for 30 mins in presence of 3-isobutyl-1-methylxanthine followed by forskolin and compound addition by competitive PKA binding assay relative to control; format: functional, cell-based
T2 sequence (P41143 whole entry): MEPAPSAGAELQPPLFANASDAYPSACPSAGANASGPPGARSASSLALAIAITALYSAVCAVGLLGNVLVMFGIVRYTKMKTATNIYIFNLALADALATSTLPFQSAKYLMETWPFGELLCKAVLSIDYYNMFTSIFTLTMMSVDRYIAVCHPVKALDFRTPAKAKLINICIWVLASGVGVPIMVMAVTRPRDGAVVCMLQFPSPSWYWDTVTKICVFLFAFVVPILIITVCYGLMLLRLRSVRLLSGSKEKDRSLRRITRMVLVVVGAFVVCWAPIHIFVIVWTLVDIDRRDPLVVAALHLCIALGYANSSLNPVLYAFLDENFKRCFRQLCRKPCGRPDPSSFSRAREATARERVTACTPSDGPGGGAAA

[6] = target: T3, Neuropeptide FF receptor 2 (Homo sapiens, UniProt Q9Y5X5); assay: Agonist activity at NPFF2R (unknown origin) expressed in HEK293-A cells assessed as inhibition of forskolin-induced cAMP accumulation preincubated for 30 mins in presence of 3-isobutyl-1-methylxanthine followed by forskolin and compound addition by competitive PKA binding assay; format: functional, cell-based
T3 sequence (Q9Y5X5 whole entry): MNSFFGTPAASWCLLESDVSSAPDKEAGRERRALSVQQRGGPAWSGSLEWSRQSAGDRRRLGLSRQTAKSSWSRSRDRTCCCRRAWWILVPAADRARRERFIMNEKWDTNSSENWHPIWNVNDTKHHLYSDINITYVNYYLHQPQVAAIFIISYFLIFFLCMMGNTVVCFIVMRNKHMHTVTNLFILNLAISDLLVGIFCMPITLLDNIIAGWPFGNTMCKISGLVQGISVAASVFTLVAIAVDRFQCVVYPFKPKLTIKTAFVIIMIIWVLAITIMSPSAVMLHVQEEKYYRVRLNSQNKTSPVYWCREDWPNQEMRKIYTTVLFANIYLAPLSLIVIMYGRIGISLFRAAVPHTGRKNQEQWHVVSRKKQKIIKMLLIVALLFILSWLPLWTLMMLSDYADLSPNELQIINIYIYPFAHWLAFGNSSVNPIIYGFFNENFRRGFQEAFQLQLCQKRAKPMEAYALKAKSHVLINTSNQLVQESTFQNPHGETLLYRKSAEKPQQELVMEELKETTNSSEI

Mus musculus [7] = assay: Antinociceptive activity against Kunming mouse model of thermal-induced nociception assessed as peripheral analgesia administered subcutaneously by tail-flick test; format: functional; conditions: sc
[8] = target: T3, Neuropeptide FF receptor 2; assay: as §1, with “NPFF2R” for “DOR”, “accumulation by measuring maximal efficacy” for “accumulation”; format: functional, cell-based; conditions: filed as agonist
Mus musculus [9] = assay: Antinociceptive activity against Kunming mouse model of thermal-induced nociception assessed as duration of analgesic effect administered subcutaneously by tail-flick test; format: functional
Mus musculus [10] = assay: Antinociceptive activity against Kunming mouse model of thermal-induced nociception assessed as maximum possible effect at 8681 nmol/kg, po measured after 30 min by tail flick test relative to control; format: functional; conditions: 0.5 h
Mu-type opioid receptor = Mu-type opioid receptor (Homo sapiens, UniProt P35372)
Mu-type opioid receptor, sequence (P35372 whole entry): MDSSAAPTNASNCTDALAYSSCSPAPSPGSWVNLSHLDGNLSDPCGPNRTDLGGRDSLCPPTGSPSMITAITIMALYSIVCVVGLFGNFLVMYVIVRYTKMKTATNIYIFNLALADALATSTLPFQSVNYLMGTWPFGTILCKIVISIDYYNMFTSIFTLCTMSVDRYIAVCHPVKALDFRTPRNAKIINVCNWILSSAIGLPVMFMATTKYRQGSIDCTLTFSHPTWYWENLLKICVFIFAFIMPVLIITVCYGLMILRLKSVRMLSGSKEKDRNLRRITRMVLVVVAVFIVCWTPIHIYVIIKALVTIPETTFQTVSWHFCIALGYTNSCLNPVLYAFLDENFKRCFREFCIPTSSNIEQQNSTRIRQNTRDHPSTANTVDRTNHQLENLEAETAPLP

[11] = target: T1, Neuropeptide FF receptor 1; assay: as §1, with “NPFF1R” for “DOR”, “accumulation by measuring maximal efficacy” for “accumulation”; format: functional, cell-based; conditions: filed as agonist
[12] = Metabolic stability in mouse plasma assessed as degradation half life at 0.01 M measured up to 360 mins; format: ADME, cell-free
Mus musculus [13] = assay: Antinociceptive activity against Kunming mouse model of thermal-induced nociception assessed as maximum possible effect at 8681 nmol/kg, po measured after 60 min by tail flick test relative to control; format: functional; conditions: 1 h
[14] = target: T2, Delta-type opioid receptor; assay: (§2) Agonist activity at DOR (unknown origin) expressed in HEK293-A cells assessed as inhibition of forskolin-induced cAMP accumulation preincubated for 30 mins in presence of 3-isobutyl-1-methylxanthine followed by forskolin and compound addition by competitive PKA binding assay; format: functional, cell-based
Mus musculus [15] = assay: Antinociceptive activity against Kunming mouse model of thermal-induced nociception assessed as maximum possible effect at 37915 nmol/kg, po measured after 20 min by tail flick test relative to control; format: functional
Mus musculus [16] = assay: Potency index, ratio of test compound ED50 to DN-9 ED50 for antinociceptive activity against Kunming mouse model of thermal-induced nociception assessed as peripheral analgesia administered subcutaneously by tail-flick test; format: functional
Mus musculus [17] = assay: Antinociceptive activity against Kunming mouse model of thermal-induced nociception assessed as maximum possible effect at 37915 nmol/kg, po measured after 30 min by tail flick test relative to control; format: functional; conditions: 0.5 h
Mus musculus [18] = assay: Antinociceptive activity against Kunming mouse model of thermal-induced nociception assessed as prolongation of tail-flick latency period at 38 umol/kg, po measured up to 240 mins by tail-flick test; format: functional, organism-based; conditions: dose 38.0 µmol/kg, time min <=240
Mus musculus [19] = assay: Antinociceptive activity against Kunming mouse model of thermal-induced nociception assessed as maximum possible effect at 37915 nmol/kg, po measured after 60 min by tail flick test relative to control; format: functional; conditions: 1 h
Mus musculus [20] = assay: Antinociceptive activity against Kunming mouse model of thermal-induced nociception assessed as maximum possible effect at 86.8 nmol/kg, po measured after 30 min by tail flick test relative to control; format: functional; conditions: 0.5 h
[21] = target: T2, Delta-type opioid receptor; assay: as §2, with “Potency index, ratio of DN-9 EC50 to test compound EC50 for agonist” for “Agonist”; format: functional, cell-based
Mus musculus [22] = assay: Antinociceptive activity against Kunming mouse model of thermal-induced nociception assessed as maximum possible effect at 86.8 nmol/kg, po measured after 20 min by tail flick test relative to control; format: functional
Mus musculus [23] = assay: Antinociceptive activity against Kunming mouse model of thermal-induced nociception assessed as maximum possible effect at 86.8 nmol/kg, po measured after 60 min by tail flick test relative to control; format: functional; conditions: 1 h
Mus musculus [24] = assay: Antinociceptive activity against Kunming mouse model of thermal-induced nociception assessed as maximum possible effect at 89 nmol/kg, po measured after 20 min by tail flick test relative to control; format: functional
Mus musculus [25] = assay: Antinociceptive activity against Kunming mouse model of thermal-induced nociception assessed as maximum possible effect at 89 nmol/kg, po measured after 60 min by tail flick test relative to control; format: functional; conditions: 1 h
Mus musculus [26] = assay: Antinociceptive activity against Kunming mouse model of thermal-induced nociception assessed as maximum possible effect at 89 nmol/kg, po measured after 30 min by tail flick test relative to control; format: functional; conditions: 0.5 h
Mus musculus [27] = assay: Antinociceptive activity against Kunming mouse model of thermal-induced nociception assessed as maximum possible effect at 87.9 nmol/kg, po measured after 60 min by tail flick test relative to control; format: functional; conditions: 1 h
Mus musculus [28] = assay: Antinociceptive activity against Kunming mouse model of thermal-induced nociception assessed as maximum possible effect at 87.9 nmol/kg, po measured after 20 min by tail flick test relative to control; format: functional
Mus musculus [29] = assay: Antinociceptive activity against Kunming mouse model of thermal-induced nociception assessed as maximum possible effect at 87.9 nmol/kg, po measured after 30 min by tail flick test relative to control; format: functional; conditions: 0.5 h
Mus musculus [30] = assay: Antinociceptive activity against Kunming mouse model of thermal-induced nociception assessed as maximum possible effect at 264201 nmol/kg, po measured after 60 min by tail flick test relative to control; format: functional; conditions: 1 h
Mus musculus [31] = assay: Antinociceptive activity against Kunming mouse model of thermal-induced nociception assessed as maximum possible effect at 264201 nmol/kg, po measured after 30 min by tail flick test relative to control; format: functional; conditions: 0.5 h
Mus musculus [32] = assay: Antinociceptive activity against Kunming mouse model of thermal-induced nociception assessed as maximum possible effect at 264201 nmol/kg, po measured after 20 min by tail flick test relative to control; format: functional
Mus musculus [33] = assay: Antinociceptive activity against Kunming mouse model of thermal-induced nociception assessed as prolongation of tail-flick latency period at 264 umol/kg, po measured up to 240 mins by tail-flick test; format: functional, organism-based; conditions: dose 264.0 µmol/kg, time min <=240

Kappa-type opioid receptor, sequence (P41145 whole entry): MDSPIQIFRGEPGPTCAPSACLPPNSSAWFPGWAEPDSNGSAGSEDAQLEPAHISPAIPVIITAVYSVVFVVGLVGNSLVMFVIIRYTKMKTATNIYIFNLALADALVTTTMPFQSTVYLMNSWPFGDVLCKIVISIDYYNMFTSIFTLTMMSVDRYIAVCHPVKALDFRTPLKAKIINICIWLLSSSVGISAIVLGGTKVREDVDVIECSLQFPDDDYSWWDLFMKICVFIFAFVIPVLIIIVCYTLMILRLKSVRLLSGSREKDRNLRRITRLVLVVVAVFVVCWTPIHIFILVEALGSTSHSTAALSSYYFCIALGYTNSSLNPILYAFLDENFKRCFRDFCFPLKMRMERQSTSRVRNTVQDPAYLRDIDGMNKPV

| SMILES | EC50 [1] [nM] | Activity (Mus musculus [2]) | EC50 [3] [nM] | MPE (Mus musculus [4]) [%] | Emax ([5]; filed as agonist) [%] | EC50 ([6]; read-out: EC50) [nM] | ED50 (Mus musculus [7]) [µmol/kg] | Emax [8] [%] | Tlast (Mus musculus [9]) [min] | MPE (Mus musculus [10]) [%] | EC50 (Mu-type opioid receptor) [nM] | Emax [11] [%] | half-life at 10000 µM [12] [min] | MPE (Mus musculus [13]) [%] | EC50 [14] [nM] | Ratio ED50 (Mus musculus [16]) | further results |
| --- | --- | --- | --- | --- | --- | --- | --- | --- | --- | --- | --- | --- | --- | --- | --- | --- | --- |
| CN1C(=O)CNC(=O)[C@@H](NC(=O)[C@@H](N)Cc2ccc(O)cc2)CCCCNC(=O)C[C@@H](C(=O)N2CCC[C@H]2C(=O)N[C@@H](CCC(N)=O)C(=O)N[C@@H](CCCNC(=N)N)C(=O)N[C@@H](Cc2ccccc2)C(N)=O)NC(=O)[C@@H]1Cc1ccccc1 (H-YKG[NMeF]DPQRF-NH2; lactam 2-5) | 320 | inactive | 28.9 | 93.9 | 65.7 | 112 | 0.022 | 68.1 | 240 | 93.2 | 72.6 | 80.6 | 9.9 | 76.3 | 28.2 | – | – |
| CN1C(=O)CNC(=O)[C@@H](NC(=O)[C@@H](N)Cc2ccc(O)cc2)CCCCNC(=O)C[C@H](C(=O)N2CCC[C@H]2C(=O)N[C@@H](CCC(N)=O)C(=O)N[C@@H](CCCNC(=N)N)C(=O)N[C@@H](Cc2ccccc2)C(N)=O)NC(=O)[C@@H]1Cc1ccccc1 (H-YKG[NMeF][dD]PQRF-NH2; lactam 2-5) | – | inactive | 104 | 94.1 | 62.2 | 81.5 | 0.0263 | 62.4 | 240 | 82.5 | 167 | 76.2 | 6.7 | 70.6 | 923 | – | – |
| C[C@@H](NC(=O)[C@@H](N)Cc1ccc(O)cc1)C(=O)NCC(=O)N(C)[C@@H](Cc1ccccc1)C(=O)NCC(=O)N1CCC[C@H]1C(=O)N[C@@H](CCC(N)=O)C(=O)N[C@@H](CCCNC(=N)N)C(=O)N[C@@H](Cc1ccccc1)C(N)=O (H-Y[dA]G[NMeF]GPQRF-NH2) | – | inactive | – | – | – | – | 0.216 | – | 90 | – | – | – | 21.8 | – | – | 1 | MPE (Mus musculus [15]): 75.6%; MPE (Mus musculus [17]): 63.1%; Activity (Mus musculus [18]): Active; MPE (Mus musculus [19]): 22.8% |
| CN1C(=O)CNC(=O)[C@H](NC(=O)[C@@H](N)Cc2ccc(O)cc2)CC(=O)NCCCC[C@@H](C(=O)N2CCC[C@H]2C(=O)N[C@@H](CCC(N)=O)C(=O)N[C@@H](CCCNC(=N)N)C(=O)N[C@@H](Cc2ccccc2)C(N)=O)NC(=O)[C@@H]1Cc1ccccc1 (H-Y[dD]G[NMeF]KPQRF-NH2; lactam 2-5) | 81.3 | inactive | 222 | – | 56 | 303 | 0.0137 | 71.8 | 240 | – | 66.3 | 77.6 | 10.8 | – | 74.2 | 15.7 | MPE (Mus musculus [20]): 95.6%; EC50 ([6]; read-out: pEC50 (converted)): 309 nM; Ratio EC50 [21]: 7; MPE (Mus musculus [22]): 88.7%; MPE (Mus musculus [23]): 80.5% |
| CN1C(=O)CNC(=O)[C@H](NC(=O)[C@@H](N)Cc2ccc(O)cc2)CCNC(=O)C[C@@H](C(=O)N2CCC[C@H]2C(=O)N[C@@H](CCC(N)=O)C(=O)N[C@@H](CCCNC(=N)N)C(=O)N[C@@H](Cc2ccccc2)C(N)=O)NC(=O)[C@@H]1Cc1ccccc1 (H-Y[dDab]G[NMeF]DPQRF-NH2; lactam 2-5) | 71.2 | inactive | 180 | – | – | 265 | 0.0142 | 63.2 | 240 | – | 37.9 | 73.4 | 530 | – | 95.1 | 15.2 | Emax [5]: 31.2%; MPE (Mus musculus [24]): 80.8%; MPE (Mus musculus [25]): 74%; MPE (Mus musculus [26]): 93.8% |
| CN1C(=O)CNC(=O)[C@H](NC(=O)[C@@H](N)Cc2ccc(O)cc2)CCCCNC(=O)C[C@H](C(=O)N2CCC[C@H]2C(=O)N[C@@H](CCC(N)=O)C(=O)N[C@@H](CCCNC(=N)N)C(=O)N[C@@H](Cc2ccccc2)C(N)=O)NC(=O)[C@@H]1Cc1ccccc1 (H-Y[dK]G[NMeF][dD]PQRF-NH2; lactam 2-5) | – | inactive | 528 | 92.6 | 60.3 | 190 | 0.0201 | 59 | 240 | 94.1 | 586 | 75.6 | 18.7 | 74.1 | 581 | – | – |
| CN1C(=O)CNC(=O)[C@H](NC(=O)[C@@H](N)Cc2ccc(O)cc2)CCCNC(=O)C[C@@H](C(=O)N2CCC[C@H]2C(=O)N[C@@H](CCC(N)=O)C(=O)N[C@@H](CCCNC(=N)N)C(=O)N[C@@H](Cc2ccccc2)C(N)=O)NC(=O)[C@@H]1Cc1ccccc1 (H-Y[dOrn]G[NMeF]DPQRF-NH2; lactam 2-5) | 139 | inactive | 439 | – | 51.9 | 133 | 0.0132 | 52.8 | 240 | – | 168 | 72.4 | 41.1 | – | 659 | 16.4 | MPE (Mus musculus [27]): 70.7%; MPE (Mus musculus [28]): 80.8%; MPE (Mus musculus [29]): 96% |
| CN1CC[C@]23c4c5ccc(O)c4O[C@H]2[C@@H](O)C=C[C@H]3[C@H]1C5 [MORPHINE] | – | – | – | – | – | – | – | – | – | – | – | – | – | – | – | – | MPE (Mus musculus [30]): 63%; MPE (Mus musculus [31]): 87.6%; MPE (Mus musculus [32]): 75.3%; Activity (Mus musculus [33]): Active |

Reference: ChEMBL document CHEMBL5034023, “Development of Multifunctional and Orally Active Cyclic Peptide Agonists of Opioid/Neuropeptide FF Receptors that Produce Potent, Long-Lasting, and Peripherally Restricted Antinociception with Diminished Side Effects” (J Med Chem, 2021)
